Experimental data: patent publication US6624317B1, “Taxoid conjugates as antimitotic and antitumor agents” (priority 2000, dated 2003)
pEC50: −log10 of the molar value.

How the values were obtained:
PAX-22 = experiment: cytotoxicity in paclitaxel-resistant 1A9 sub-line PAX-22; type: cell-based, human; details: PAX-22 paclitaxel-resistant 1A9 sub-line
Description: (§1) Biological Assay. The in vitro cytotoxicity assay was carried out according to procedures described in Rubinstein et al. (P. Ferguson et al., Cancer Res. 1988, 48, 5956-5964). […] The human tumor cell line panel consisted of epiderimoid carcinoma of the nasopharynx (KB), lung carcinoma (A-549), ileocecal carcinoma (HCT-8), renal cancer (CAKI-1), breast cancer (MCF-7), melanoma cancer (SKMEL-2), and ovarian cancer (1A9). The drug resistant cell line panel consisted of three KB-derivatives, -7d, -CPT, and -VCR. The properties of these cells are described elsewhere (P. Ferguson et al., Cancer Res. 1988, 48, 5956-5964; D. Beidler et al., Cancer Res. 1996, 56, 345-353). […] They were a generous gift of Dr. P. Giannakakou (P. Giannakakou et al., J. Biol. Chem. 1997, 27, 17118-17125). Cells were cultured at 37° C. in RPMI-1640 with 100 ug/mL kanamycin and 10% (v/v) fetal bovine serum in a humidified atmosphere containing 5% CO2. Initial seeding densities varied among the cell lines to ensure a final absorbance of 1-2.5 A562 units. Drug exposure was for 3 days, and the ED50 value, the drug concentration that reduced the absorbance by 50%, was interpolated from dose-response data.
(§2) The newly synthesized taxoid-4′-O-demethyl epipodophyllotoxin conjugates were evaluated in house using standard cytotoxicity assays in human tumor (HTCL) and drug-resistant (DRCL) cell lines. Reference compounds were paclitaxel (1), cephalomannine (2), and epipodophyllotoxins [etoposide (5) and GL-331 (7), see FIG. 1]. The HTCL panel was comprised of KB, A549, HCT-8, CAKI-1, MCF-7, SK-MEL-2, and 1A9 cell lines. Two paclitaxel-resistant 1A9 sub-lines designated as PAX-10 and PAX-22 were also tested as part of the DRCL panel. Other resistant-cell lines were KB derivatives expressing various mechanisms or multi-drug resistance as described elsewhere (P. Ferguson et al., Cancer Res. 1988, 48, 5956-5964; D. Beidler et al., Cancer Res. 1996, 56, 345-353).

PAX-10 = experiment: cytotoxicity in paclitaxel-resistant 1A9 sub-line PAX-10; type: cell-based, human; details: PAX-10 paclitaxel-resistant 1A9 sub-line
Description: as §1, §2

breast cell lines = experiment: NCI human tumor cell lines, breast; type: cell-based; details: average over all cell lines of the tumor type; data provided by the NCI
[1] = tested on: ileocecal carcinoma (HCT-8); experiment: in vitro cytotoxicity assay, HCT-8; details: read-out: Cytotoxicity (ED50) HCT-8; HCT-8; drug exposure 3 days; NA = not active
Description: as §1

[2] = tested on: paclitaxel resistant cells; experiment: cytotoxicity against paclitaxel resistant cells (overall); type: cell-based, human; details: compared with the unconjugated components, Table 3
Description: as §1, §2

leukemia cell lines = experiment: NCI human tumor cell lines, leukemia; type: cell-based; details: average over all cell lines of the tumor type; data provided by the NCI
renal cell lines = experiment: NCI human tumor cell lines, renal; type: cell-based; details: average over all cell lines of the tumor type; data provided by the NCI
KB-VCR = experiment: cytotoxicity in drug resistant cell line KB-VCR; type: cell-based, human; details: KB-VCR drug resistant KB derivative
Description: as §1, §2

Colon cell lines = experiment: NCI human tumor cell lines, colon; type: cell-based; details: average over all cell lines of the tumor type; data provided by the NCI
[3] = tested on: Non-small cell lung cancer cell lines; experiment: NCI human tumor cell lines, NSCL; type: cell-based; details: average over all cell lines of the tumor type; data provided by the NCI
ovarian cancer (1A9) = experiment: in vitro cytotoxicity assay, 1A9; details: read-out: Cytotoxicity (ED50) 1A9 (OVCAR); 1A9 (OVCAR); drug exposure 3 days
Description: as §1

prostate cell lines = experiment: NCI human tumor cell lines, prostate; type: cell-based; details: average over all cell lines of the tumor type; data provided by the NCI
breast cancer (MCF-7) = experiment: in vitro cytotoxicity assay, MCF-7; details: read-out: Cytotoxicity (ED50) MCF-7; MCF-7; drug exposure 3 days
Description: as §1

[4] = tested on: epiderimoid carcinoma of the nasopharynx (KB); experiment: in vitro cytotoxicity assay, KB; type: cell-based, human; details: drug exposure 3 days
Description: as §1

KB-7d = experiment: cytotoxicity in drug resistant cell line KB-7d; type: cell-based, human; details: KB-7d drug resistant KB derivative
Description: as §1, §2

[5] = tested on: approximately 60 human tumor cell lines; experiment: NCI cytotoxicity evaluation in approximately 60 human tumor cell lines (overall); type: cell-based; details: especially leukemia, colon, and prostate cell lines
KB-CPT = experiment: cytotoxicity in drug resistant cell line KB-CPT; type: cell-based, human; details: KB-CPT drug resistant KB derivative
Description: as §1, §2

ovarian cell lines = experiment: NCI human tumor cell lines, ovarian; type: cell-based; details: average over all cell lines of the tumor type; data provided by the NCI
Topoisomerase II = Topoisomerase II activity assay (inhibition of topo II in vitro); type: biochemical; details: NA^1 not active at 50 uM, NA^2 not active at 100 uM
Excerpt: (§3) Protein-Linked DNA Break and Topoisomerase 11 Activity Assays. The procedures were done according to detailed published methods (K. Bastow et al., Bioorg. Med. Chem. 1997, 5, 1481-1488).

renal cancer (CAKI-1) = experiment: in vitro cytotoxicity assay, CAKI-1; details: read-out: Cytotoxicity (ED50) CAKI-1; CAKI-1; drug exposure 3 days
Description: as §1

[6] = tested on: Cellular protein-DNA complex formation; experiment: Protein-linked DNA break assay (cellular protein-DNA complex formation); type: cell-based
Excerpt: as §3

lung carcinoma (A-549) = experiment: in vitro cytotoxicity assay, A549; details: read-out: Cytotoxicity (ED50) A549; A549; drug exposure 3 days; NA = not active
Description: as §1

[7] = tested on: melanoma cancer (SKMEL-2); experiment: in vitro cytotoxicity assay, SK-MEL-2; details: read-out: Cytotoxicity (ED50) SK-MEL-2; SK-MEL-2; drug exposure 3 days; NA = not active
Description: as §1

melanoma cell lines = experiment: NCI human tumor cell lines, melanoma; type: cell-based; details: average over all cell lines of the tumor type; data provided by the NCI
[8] = tested on: Central nervous system cancer cell lines; experiment: NCI human tumor cell lines, CNS; type: cell-based; details: average over all cell lines of the tumor type; data provided by the NCI

What does the source list for `COc1cc([C@@H]2c3cc4c(cc3[C@@H](N=Cc3ccc(C(=O)O[C@@H](C(=O)O[C@H]5C[C@@]6(O)[C@@H](OC(=O)c7ccccc7)[C@@H]7[C@]8(OC(C)=O)CO[C@@H]8C[C@H](O)[C@@]7(C)C(=O)[C@H](OC(C)=O)C(=C5C)C6(C)C)[C@@H](NC(=O)c5ccccc5)c5ccccc5)cc3)[C@H]3COC(=O)[C@H]23)OCO4)cc(OC)c1O` [Compound 12]?
Resistance Fold PAX-22 (PAX-22): 17; Resistance Fold PAX-10 (PAX-10): 7; log GI50 breast (breast cell lines): −6.56; pEC50 [1]: 6.27; activity against paclitaxel resistant cells (in words) [2]: enhanced activity against paclitaxel resistant cells; log GI50 leukemia (leukemia cell lines): −7.60; log GI50 renal (renal cell lines): −6.13; Resistance Fold KB-VCR (KB-VCR): 17; log GI50 Colon (Colon cell lines): −7.20; log GI50 NSCL [3]: −6.58; pEC50 (ovarian cancer (1A9)): 7.52; log GI50 prostate (prostate cell lines): −7.22; pEC50 (breast cancer (MCF-7)): 6.48; Cytotoxicity (ED50) KB [4]: 3 nM; Resistance Fold KB-7d (KB-7d): 1; inhibitory effects against NCI tumor cell lines (in words) [5]: strongest inhibitory effects against a variety of tumor cell lines; Resistance Fold KB-CPT (KB-CPT): 1; log GI50 ovarian (ovarian cell lines): −6.55; Inhibition of Topo II IC100 (Topoisomerase II): 100 µM; pEC50 (renal cancer (CAKI-1)): < 6.60; Cellular protein-DNA complex formation ([6]; Etoposide given as 100, NA^1 not active at 50 uM, NA^2 not active at 100 uM): 8 +/− 2%; intracellular poisoning / stimulation of protein-DNA breaks in cells (in words) ([6]; in cells): intracellular poisons; pEC50 (lung carcinoma (A-549)): 6.68; pEC50 [7]: < 6.40; log GI50 melanoma (melanoma cell lines): −6.29; log GI50 CNS [8]: −6.93
